# Data published in patent publication EP4653435A1, “PRMT5-MTA INHIBITOR” (Suzhou Puhe Biopharma Co., Ltd., priority 2023, dated 2024).
# pIC50: −log10 of the molar value.
# Tests used:
# in vitro [1] = conditions: human, microsomes
# Description: (§6) The compounds to be tested were co-incubated with liver microsomes of different species with or without the addition of NADPH. The final concentration of the test compounds in the test system was 1 µM, the final concentration of NADPH was 1 mM, and the final concentration of liver microsomes was 0.5 mg/mL.
# HCT116-MTAPdel = assay: 2D antiproliferative assay (CTG cell viability), MTAP-deficient cells; type: cell-based; conditions: for IC50: Homo sapiens, HCT-116, HCT116 MTAP-deficient cells, 7-10 days, CTG, read-out: HCT116-MTAPdel/IC50/nM; for HCT116WT IMTAPdel selectivity: ratio IC50 wild type / MTAPdel, antiproliferation
# HCT116-MTAPwt = assay: 2D antiproliferative assay (CTG cell viability), wild-type cells; type: cell-based; conditions: Homo sapiens, HCT-116, 7-10 days
# in vitro [2] = conditions: dog, MDCK-MDR1, pH 7.4
# Description: (§1) The membrane permeability of the molecules of the present invention was evaluated to predict their permeability to the brain.
# (§2) The specific procedure was: 1. MDCK-MDR1 cells were pre-cultured at a density of 1.56*10^6 cells/mL in a 96-well plate at 37°C for 7 days. 2. The MDCKII-MDR1 plate was taken out of the incubator, rinsed twice with pre-warmed HBSS (10 mM HEPES, pH 7.4), and then incubated at 37°C for 30 minutes. 3. The stock solution of the compound to be tested was diluted with DMSO to obtain a 0.2 mM solution, and then diluted with HBSS (10 mM HEPES, pH 7.4) to obtain a 1 µM working solution. A blank control group was also diluted with DMSO to obtain a 0.2 mM solution, and then diluted with HBSS (10 mM HEPES, pH 7.4) to obtain a 1 µM working solution. The final concentration of DMSO in the culture system was 0.5%. 4. The transport rate of the drug in the apical to basolateral direction was determined: 125 µL of the 1 µM test compound solution was added to a Transwell insert (top compartment), before immediately transferring a 50 µL sample (D0 sample) from the top comparment to a new 96-well plate. The receiving plate wells (basolateral compartment) were filled with 235 µL HBSS (10 mM HEPES, pH 7.4) and incubated at 37°C for 2 hours. 5. Upon completion of the incubation, 50 µL samples were transferred from the donor and acceptor sides to the wells of a new 96-well plate, before adding 4 volumes of cold acetonitrile containing an appropriate internal standard (IS). Prior to LC-MS/MS analysis, 100 µL of the supernatant was taken and mixed with an appropriate volume of ultrapure water. Papp = (VA×[drug]acceptor)/(Area×Time×[drug]initial,donor) [formula] where VA is the volume of the receptor pores (unit:mL), Area is the surface area of the membrane (0.143 cm^2 for a Transwell-96 well permeable support), and time is the total transport time in seconds. Efflux Ratio = Papp(B−A) /Papp(A−B) [formula]
# MDR1 (P-gp) = assay: in vitro; conditions: dog, MDCK-MDR1, pH 7.4
# Description: as §1, §2
# SDMA/HCT116-MTAPdel = assay: In-cell arginine symmetric dimethylation inhibition (In-cell western, ICW), MTAP-deficient cells; type: cell-based; conditions: for IC50: Homo sapiens, HCT-116, HCT116 MTAP-deficient cells, 96 hours; for Selectivity wt/MTAPdel: ratio SDMA IC50 wt / MTAPdel
# Description: (§3) 60 nL of different concentrations of compounds were added to each well using an Echo, and incubated at 37°C, 5% CO2 for 96 hours.
# (§4) Next, 50 µL of 4% paraformaldehyde solution was added to each well and incubated at room temperature for 20 minutes to fix the cells. The solution in the wells was removed, and each well was rinsed four times with PBS solution containing 0.1% Tween 20 (PBST). To each well was then added 30 µL of ice-cold methanol. After standing at -20°C for 10 minutes, the methanol was removed and the wells washed four times with PBST. 30 µL of Odyssey blocking solution containing 0.5% Tween 20 was added to each well and shaken for 2 hours at room temperature. The blocking solution was removed and 30 µL of primary antibody (Symmetric Di-Methyl Arginine Motif [sdma-RG] MultiMab™ Rabbit mAb mix) diluted at 1:500 in Odyssey blocking solution containing 0.5% Tween 20 was added to each well. The plates were incubated overnight at 4°C, before removing the primary antibody and rinsing each well four times with PBST, 5 minutes per rinse. Secondary antibody (goat anti-rabbit IRDye 800CW, 1:800) and nuclear stain (DRAQ5, 1:10000) diluted in Odyssey blocking solution containing 0.5% Tween 20 were then added to each well before incubating at room temperature for 2 hours in the dark. The secondary antibody was removed, and the wells rinsed four times with PBST.
# (§5) The sdme-RG and DRAQ5 signals were scanned at 800 nm and 700 nm respectively on a Li-Cor Odyssey instrument and the signal values recorded. The sdme-RG/DRAQ5 ratio was used to calculate the percentage inhibition of arginine symmetric dimethylation (SDMA), and the IC50 value calculated using GraphPad Prism software.
# SDMA/HCT116-MTAPwt = assay: In-cell arginine symmetric dimethylation inhibition (In-cell western, ICW), wild-type cells; type: cell-based; conditions: Homo sapiens, HCT-116, 96 hours
# Description: as §3, §4, §5
# [3] = Liver microsomal stability assay, mouse; type: in vitro ADME; conditions: mouse liver microsomes 0.5 mg/mL, compound 1 µM, NADPH 1 mM, 60 minute
# Description: as §6
# [4] = Liver microsomal stability assay, human; conditions: liver microsomes
# Description: as §6
# [5] = Mouse pharmacokinetics testing; type: in vivo, CD1 female mice; conditions: female, CD1, mouse, in vivo
# Description: CD1 female mice were used as test animals and administered the compounds orally/intravenously (oral dosage was 10 mg/kg and intravenous dosage was 2 mg/kg). Test protocol: Each oral and intravenous group consisted of three mice. […] Plasma drug concentrations after oral and intravenous administration were determined by LC/MS/MS, and the collected data analyzed using AB Sciex QTRAP 6500 software.
# [6] = tested on: NCI-H838 (MTAPdel) non-small cell lung adenocarcinoma tumor cells; assay: In vivo efficacy, NCI-H838 subcutaneous xenograft; parameters: species or system BALB/c nude mice; conditions: BID, oral; for TGI: 23 consecutive days; for Tumor volume (mm^3)-D1: D1 (baseline at start of dosing)
# Description: NCI-H838 (MTAPdel) non-small cell lung adenocarcinoma tumor cells were cultured and inoculated into 6-8 week old female BALB/c nude mice (weighing about 20 g), with all mice inoculated subcutaneously. The mice were cultured in an SPF-grade environment, and all mice had free access to commercially certified standard diets. Test compounds were orally administered daily once the average tumor volume of the mice grew to about 140 mm^3. The control group received blank solvent (saline containing 0.1% Tween 80 and 0.5% methyl cellulose), while the test group received a drug dose of 75 mg/kg or 100 mg/kg, twice a day. Tumor volume was measured in two dimensions with calipers three times a week, and the animals were weighed every day. […] Volume calculation formula: V=1/2a*b^2, where a denotes the long diameter of the tumor, and b the short diameter of the tumor.
# [7] = tested on: HUP-T4 (MTAPdel) human pancreatic cancer tumor cells; assay: In vivo efficacy, HUP-T4 subcutaneous xenograft; parameters: species or system BALB/c nude mice; conditions: BID, oral; for TGI: 28 consecutive days; for Tumor volume (mm^3)-D1: D1 (baseline at start of dosing)
# Description: HUP-T4 (MTAPdel) human pancreatic cancer tumor cells (MEM medium with 10% fetal bovine serum) were cultured and inoculated into 6-8 week old female BALB/c nude mice (weighing about 25 g), with all mice subcutaneously inoculated. The mice were cultured in an SPF-grade environment, and all mice had free access to commercially certified standard diets. Test compounds were orally administered daily once the average tumor volume of the mice grew to about 176 mm^3. The control group received blank solvent (0.1% TW80+0.5% methylcellulose+99.4% saline), while the test group received a drug dose of 75 mg/kg or 50 mg/kg, twice a day. Tumor volume was measured in two dimensions with calipers three times a week, and the animals were weighed every day. […] Voume calculation formula: V=1/2a*b^2, where a denotes the long diameter of the tumor, and b the short diameter of the tumor.
# hERG channels = hERG channels (Homo sapiens, UniProt Q12809); assay: cell-based
# Sequence of hERG channels (Q12809 whole entry): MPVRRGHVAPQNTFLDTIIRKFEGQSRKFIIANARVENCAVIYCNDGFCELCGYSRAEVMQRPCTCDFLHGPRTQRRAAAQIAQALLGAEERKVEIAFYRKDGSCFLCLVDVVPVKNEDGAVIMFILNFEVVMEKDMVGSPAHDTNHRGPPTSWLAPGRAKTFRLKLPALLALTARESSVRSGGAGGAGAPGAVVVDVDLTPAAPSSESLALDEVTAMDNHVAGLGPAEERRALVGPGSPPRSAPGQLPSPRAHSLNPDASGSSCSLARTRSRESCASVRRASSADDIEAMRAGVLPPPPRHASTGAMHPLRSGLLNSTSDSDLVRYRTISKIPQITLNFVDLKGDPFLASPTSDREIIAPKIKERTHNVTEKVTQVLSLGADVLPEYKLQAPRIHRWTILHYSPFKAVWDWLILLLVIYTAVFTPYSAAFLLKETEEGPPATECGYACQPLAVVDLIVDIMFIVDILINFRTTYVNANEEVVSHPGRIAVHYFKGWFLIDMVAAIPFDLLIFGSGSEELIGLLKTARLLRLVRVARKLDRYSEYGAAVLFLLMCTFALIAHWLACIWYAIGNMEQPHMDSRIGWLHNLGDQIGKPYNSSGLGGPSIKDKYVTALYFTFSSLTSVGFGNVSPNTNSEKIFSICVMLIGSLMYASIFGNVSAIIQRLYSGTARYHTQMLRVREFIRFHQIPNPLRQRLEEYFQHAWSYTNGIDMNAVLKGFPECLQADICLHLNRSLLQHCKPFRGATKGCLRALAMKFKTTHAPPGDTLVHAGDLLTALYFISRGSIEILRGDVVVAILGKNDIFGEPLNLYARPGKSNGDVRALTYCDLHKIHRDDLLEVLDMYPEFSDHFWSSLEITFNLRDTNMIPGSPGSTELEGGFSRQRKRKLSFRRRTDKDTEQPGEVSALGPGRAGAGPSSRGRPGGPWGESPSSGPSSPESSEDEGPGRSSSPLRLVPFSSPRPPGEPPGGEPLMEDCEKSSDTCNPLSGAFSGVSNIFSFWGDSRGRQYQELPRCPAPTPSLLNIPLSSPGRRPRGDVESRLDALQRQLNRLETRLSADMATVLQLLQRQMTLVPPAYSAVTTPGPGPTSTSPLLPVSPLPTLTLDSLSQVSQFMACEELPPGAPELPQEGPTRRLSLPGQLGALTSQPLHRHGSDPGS
# Description: The CHO hERG-Duo cell line stably expressing hERG channels was purchased from B'SYS GmbH and screened for monoclonal clones using the patch clamp system of Pharmaron Beijing Co., Ltd. The cells were cultured in a medium containing F12 (HAM) medium, 10% fetal bovine serum, 100 U/mL penicillin-streptomycin, 100 µg/mL hygromycin, and 100 µg/mL G418.
# The membrane was depolarized to +30 mV for 4.8 seconds before returning the voltage to -50 mV for 5.2 seconds to remove inactivation and measure the deactivation tail current. The sampling interval was 15 seconds, and the peak tail current size was used to quantify the hERG current amplitude.
# A blank vehicle was applied to the cells to establish a baseline. Test samples were introduced after stabilizing the hERG current for at least 5 minutes. In the presence of the test compound, the hERG current at different working concentrations was recorded for no less than 5 minutes until reaching a steady state, before capturing 5 sweeps. If a steady state was not reached within 10 minutes, the mean peak current of the last 5 sweeps was taken instead of the steady-state value. […] Peak current inhibition = (1−(Peak tail currentcompound −Peak tail currentpositive control)/(Peak tail currentBlank vehicle −Peak tail currentpositive control)) × 100 [formula]
Compound,IC50 (HCT116-MTAPdel) [nM],HCT116WT IMTAPdel selectivity (HCT116-MTAPdel),IC50 (HCT116-MTAPwt) [nM],Papp A→B (in vitro [2]) [×10⁻⁶ cm/s],Papp B→A (in vitro [2]) [×10⁻⁶ cm/s],efflux ratio (MDR1 (P-gp)),IC50 (SDMA/HCT116-MTAPdel) [nM],Selectivity wt/MTAPdel (SDMA/HCT116-MTAPdel),IC50 (SDMA/HCT116-MTAPwt) [nM],CLint scaled at 1 µM [3] [mL/min/kg],CLint scaled at 1 µM [4] [mL/min/kg],F [5] [%],"AUC(0-t) ([5]; iv, 2 mg/kg) [ng·h/mL]","C0 ([5]; iv, 2 mg/kg) [ng/mL]","clearance ([5]; iv, 2 mg/kg) [mL/min/kg]","half-life ([5]; iv, 2 mg/kg) [h]","AUC(0-t) ([5]; po, 10 mg/kg) [ng·h/mL]","Cmax ([5]; po, 10 mg/kg) [ng/mL]","Tmax ([5]; po, 10 mg/kg) [h]","half-life ([5]; po, 10 mg/kg) [h]",other results
CN(C(=O)C(=O)Nc1cnc(N)c2c1cnn2C)C1COc2cc(SC(F)(F)F)ccc21 (racemic) [Compound P29],20,165,3300,,,,,,,,,,,,,,,,,,"CLint scaled at 1 h, 1 µM (in vitro [1]): 25.9 mL/min/kg"
CN(C(=O)C(=O)Nc1cnc(N)c2c1cnn2C)[C@@H]1COc2cc(C(F)(F)F)ccc21 [Compound P2a],5,216,1080,14.8,22.1,1.5,0.5,3054,1530,55,7.4,69,402,345,82.4,1.2,1380,707,0.25,1.2,TGI ([6]; 75 mg/kg): 92%; Tumor volume (mm^3)-D1 ([6]; 75 mg/kg): 140 mm^3; Tumor volume (mm^3)-D23 ([6]; 75 mg/kg): 350 mm^3; TGI ([6]; 100 mg/kg): 97%; Tumor volume (mm^3)-D1 ([6]; 100 mg/kg): 140 mm^3; Tumor volume (mm^3)-D23 ([6]; 100 mg/kg): 180 mm^3
[2H]C([2H])([2H])N(C(=O)C(=O)Nc1cnc(N)c2c1cnn2C)[C@@H]1COc2cc(C(F)(F)F)ccc21 [Compound P22],6,160,961,14.9,20.6,1.38,0.2,1490,298,46.2,7.8,62,896,1140,35.5,2.6,2660,1180,0.25,2.2,TGI ([7]; 50 mg/kg): 102%; Tumor volume (mm^3)-D1 ([7]; 50 mg/kg): 176 mm^3; Tumor volume (mm^3)-D28 ([7]; 50 mg/kg): 158 mm^3; TGI ([7]; 75 mg/kg): 104%; Tumor volume (mm^3)-D1 ([7]; 75 mg/kg): 176 mm^3; Tumor volume (mm^3)-D28 ([7]; 75 mg/kg): 146 mm^3
CN(C(=O)C(=O)Nc1cnc(N)c2c1cnn2C)[C@@H]1COc2cc(SC(F)(F)F)ccc21 [Compound P29a],9,261,2350,7.6,13.3,1.75,0.4,670,268,,49.7,,,,,,,,,,pIC50 (hERG channels): 5.82
[2H]C([2H])([2H])N(C(=O)C(=O)Nc1cnc(N)c2c1cnn2C)[C@@H]1COc2cc(SC(F)(F)F)ccc21 [Compound P32],9,194,1750,10.5,13.5,1.28,0.3,853,256,242,32,75,788,733,41.8,1.4,2580,798,0.25,1.7,pIC50 (hERG channels): 5.54; TGI ([7]; 50 mg/kg): 97%; Tumor volume (mm^3)-D1 ([7]; 50 mg/kg): 176 mm^3; Tumor volume (mm^3)-D28 ([7]; 50 mg/kg): 198 mm^3; TGI ([7]; 75 mg/kg): 104%; Tumor volume (mm^3)-D1 ([7]; 75 mg/kg): 176 mm^3; Tumor volume (mm^3)-D28 ([7]; 75 mg/kg): 140 mm^3
